Where a SMILES comes first, the peptide text is derived from it.
Row | SMILES | logP
1 | COC1C(O)CC(=O)OC(C)CC=CC=CC(=O)C(C)CC(CC=O)C1OC1OC(C)C(OC2CC(C)(O)C(OC(=O)CC(C)C)C(C)O2)C(N(C)C)C1O (configuration not stated) | 1.86
2 | COc1c2oc(=O)ccc2cc2ccsc12 | 2.66
3 | CC(NC(=O)C(NC(=O)C(N)Cc1ccccc1)C(C)C)C(=O)O (stereo not drawn) (H-Phe-Val-Ala-OH; configuration not given here) | -2.19
4 | CCCN(CCCCC(NC(C)=O)C(=O)NCc1ccccc1)C(=O)NCCCl (configuration not stated) | 1.13
5 | CCCCC(=O)C(CCCCOc1c(C)cc(C)cc1[N+](=O)[O-])n1cncn1 (configuration not stated) | 3.9
6 | COc1coc(CCl)cc1=O | 0.16
7 | c1ccc(Cn2cnc3ccccc32)cc1 | 2.91
8 | OCC1OC(n2cnc3c(NCc4ccco4)ncnc32)C(O)C1O (configuration not stated) | 0.52
9 | O=C1CN=C(c2ccc(F)cc2)c2ccccc2N1 | 2.38
10 | CC(=O)OCC1OC(n2cc(F)c(=O)[nH]c2=O)C(OC(C)=O)C1OC(C)=O (configuration not stated) | -0.25
11 | COC(=O)c1ccc(OP(=O)(NC(C)C(=O)OC)OCC2C=CC(n3cc(C)c(=O)[nH]c3=O)O2)cc1 (configuration not stated) | 1.01
12 | OC(CNC1CCCCC1)CON=C(C1CC1)C1CC1 (configuration not stated) | 2.64
13 | Nc1nc(N)c2c([N+](=O)[O-])cccc2n1 | 1.19
14 | Cc1cccc(Cc2c[nH]cn2)c1 | 2.39
15 | Cc1ccc(-n2c(Cc3c(C)[nH]c4ccccc34)n[nH]c2=S)cc1 | 3
16 | O=C1C=C(N2CC2)C(=O)C=C1N1CC1 | 0.18
17 | CCCCC(O)C(CCCCOc1cccc(C)c1)n1cncn1 (configuration not stated) | 3.6
18 | Cc1nccc2c3ccccc3n(C)c12 | 3.01
19 | Nc1nc(F)nc2c1ncn2[C@@H]1O[C@H](CO)[C@@H](O)[C@H]1O | -0.8
20 | COC(=O)C=CCn1cc([N+](=O)[O-])nc1C | 0.16
21 | COc1ccc(C2Cc3c(cccc3C(F)(F)F)N(CCN(C)C)C(=O)C2O)cc1 (configuration not stated) | 4.1
22 | CCSc1cccc2nc(N)nc(N)c12 | 2.27
23 | Clc1cc(Cl)c(-c2c(Cl)ccc(Cl)c2Cl)c(Cl)c1 | 6.75
24 | O=C(O)C1CSC(c2cc(O)ccc2O)=N1 (configuration not stated) | 0.9
25 | CCON=C(CC)C1=C(O)CC(c2cccc(Oc3ncc(C(F)(F)F)cc3F)c2)CC1=O (configuration not stated) | 4.63
26 | COC1CC(OC2C(C)OC(OC3CCC4(C)C(CCC5C4CC(O)C4(C)C(C6=CC(=O)OC6)CCC54O)C3)CC2OC)OC(C)C1OC1CC(O)C(O)C(C)O1 (configuration not stated) | 2.14

Row | SMILES | logP
27 | COC(=O)C=CCn1ccnc1[N+](=O)[O-] | 0.32
28 | CCC1C(=O)N(CCN(C)C)c2cccc(C(F)(F)F)c2CC1c1ccc(OC)cc1 (configuration not stated) | 6.3
29 | CN1C(C(=O)Nc2ccccn2)=C(O)c2sc(Cl)cc2S1(=O)=O | 2.62
30 | CC(C)CC(N)C(=O)N1CCCC1C(=O)O (stereo not drawn) (H-Leu-Pro-OH; configuration not given here) | -1.76
31 | CCCCCCCCCCCCN(C)N=Nc1ccc(C(N)=O)cc1 | 6.58
32 | O=C(CCCN=C=S)c1cccnc1 | 1.79
33 | O=C(O)CCCCCON=C(c1ccccc1)c1ncccn1 | 2.25
34 | CCC(C)C(NC(=O)C(Cc1ccc(O)cc1)NC(=O)C(C)N)C(=O)O (configuration not stated) | -2.04
35 | CC(C)NC(=O)N1C(=O)N(C)CC1O (configuration not stated) | 0.96
36 | OCC1OC(Oc2ccc(F)cc2)C(O)C(O)C1O (configuration not stated) | -0.42
37 | O=C1CNC(=O)C(Cc2c[nH]c3ccccc23)N1 (configuration not stated) | 0.07
38 | O=C(O)C(c1ccc(-c2ccccc2)cc1)C(O)c1ccccc1 (configuration not stated) | 3.6
39 | CC(=O)OC1C(CCl)OC(n2cc(F)c(=O)[nH]c2=O)C1OC(C)=O (configuration not stated) | 0.38
40 | CCc1ccc(CNc2[nH]cnc3ncnc2-3)cc1 | 3.17
41 | CCCOc1ccccc1CNc1[nH]cnc2ncnc1-2 | 3.27
42 | CCCCN(CCO)CCCC | 2.65
43 | COc1ccc(C2Cc3ccccc3N(CCN(C)C)C(=O)C2C)cc1 (configuration not stated) | 4.5
44 | CCCc1nc(N)nc(N2CCOCC2)n1 | 0.7
45 | Brc1c2ccccc2c(Br)c2ccccc12 | 6.29
46 | OC(CCCN1CCC(C(O)(c2ccccc2)c2ccccc2)CC1)c1ccccc1 (configuration not stated) | 3.9
47 | CCn1ccnc1CC1COc2ccccc2O1 (configuration not stated) | 2.31
48 | CON=C(C(=O)NC1C(=O)N2C(C(C)OC(=O)OC3CCCCC3)=CCSC12)c1csc(N)n1 (configuration not stated) | 2.52
49 | Nc1nnnn1-c1ccc(F)cc1 | 0.75
50 | COC(=O)c1ccc(C(=O)OC)c(N)c1 | 2.28
51 | CCOc1cc2ncnc(Nc3cccc(I)c3)c2cc1OCC | 4.62
52 | CNC(=O)Nc1ccc(C(=O)O)cc1 | 1.1

Row | SMILES | logP
53 | C=C1CC2c3c(O)cc(CCCCC)cc3OC(C)(C)C2CC1O (configuration not stated) | 5.24
54 | CC(=O)c1cc2cccc3ccc4cccc1c4c32 | 4.16
55 | CC(C)(C)[N+]([O-])=Cc1cc[n+]([O-])cc1 | -1.05
56 | O=c1cc(-c2cccc(Cl)c2)oc2ccc(Cl)cc12 | 4.38
57 | COC(=O)C(C)=CC1C(C(=O)OCc2cccc(OCc3ccccc3)c2)C1(C)C (configuration not stated) | 6.06
58 | CC(C)(C)[N+]([O-])=Cc1ccc(Cl)cc1 | 2.4
59 | CC(C)(C)c1ccc(C(CCN2CCCCC2)c2ccccc2)cc1 (configuration not stated) | 6.83
60 | COC(=O)N1CCN(C(=O)Cc2ccc(Cl)c(Cl)c2)C(CN2CCCC2)C1 (configuration not stated) | 4.1
61 | Cc1cccc(C)c1Cc1ccccn1 | 3.48
62 | CC(=O)NC1=C(Cl)C(=O)c2ccccc2C1=O | 1.42
63 | CC(C)NC(=NC#N)NS(=O)(=O)c1cnccc1NC1CCCCCCCCCCC1 | 4.51
64 | COc1ccc(SC)cc1CNC1CCCNC1c1ccccc1 (configuration not stated) | 3.7
65 | COc1c([N+](=O)[O-])cc(C(=O)O)cc1[N+](=O)[O-] | 1.73
66 | O=S(CCl)c1ccccc1 (configuration not stated) | 1.47
67 | Cc1cccc(OCC2CN=C(N)O2)c1C (configuration not stated) | 2.25
68 | C[N+](C)([O-])CC(c1ccccc1)c1ccccc1 | 1.01
69 | CN1CCN(c2cc3c(cc2F)c(=O)c(C(=O)O)cn3C2CC2)CC1 | 0.15
70 | Cc1oc2cc3oc(=O)cc(C)c3cc2c1C | 3.22
71 | N#Cc1cccc(Cc2ncccn2)c1 | 1.46
72 | CCCCC(=O)C(CCCCOc1cccc(F)c1)n1cncn1 (configuration not stated) | 3.42
73 | CCCc1ccc(CNc2[nH]cnc3ncnc2-3)cc1 | 3.72
74 | CC(C)C1(C)N=C(c2ncc(-c3ccccc3)cc2C(=O)O)NC1=O (configuration not stated) | 2.24
75 | COc1ccc(C2=NC(C)(C(=O)O)CS2)c(O)c1OC (configuration not stated) | 1.4
76 | CCOC(=O)CCCn1cnc([N+](=O)[O-])n1 | 0.42
77 | CCCCNc1ncnc2c1ncn2C1OC(CO)C(O)C1O (configuration not stated) | 1.1
78 | COc1ccccc1OCCN(C)C | 1.42

Row | SMILES | logP
79 | CC(C)(C)[N+]([O-])=Cc1ccc(O)cc1 | 0.6
80 | Cc1nc2ccccc2c(=O)n1CCC(=O)O | 0.93
81 | CCOc1cc2ncnc(Nc3cccc(F)c3)c2cc1OCC | 3.71
82 | Nc1ccc2nc3ccccn3c2n1 | 1.38
83 | O=C(O)c1ccccc1NC(=O)c1c(O)cccc1O | 3.52
84 | O=C(O)Cc1cc(O)ccc1Nc1c(Cl)cccc1Cl | 3.94
85 | COc1ccc(C2Cc3cc(C(F)(F)F)ccc3N(CCN(C)C)C(=O)C2SC(C)=O)cc1 (configuration not stated) | 5.4
86 | Cc1nc2c3c(c(C(=O)N4CC(O)C4)cn2c1C)CCC(c1ccccc1)O3 (configuration not stated) | 3.1
87 | CCON=C(CC)C1=C(O)CC(c2cccc(Oc3ccc(Cl)c(Cl)c3)c2)CC1=O (configuration not stated) | 6.32
88 | CCCCCCNCc1ccc(C)cc1 | 4.96
89 | CCCCNC(=O)Cn1cccc(O)c1=O | 0.33
90 | O=C(O)Cc1nn(Cc2nc3cc(C(F)(F)F)ccc3s2)c(=O)c2ccccc12 | 2.37
91 | O=C1NC(c2ccccc2)(c2ccccc2)C(=O)N1CO | 2.23
92 | O=c1[nH]c2cc(Cl)ccc2c(O)c1-c1cccc(Cc2ccc(CCN3CCOCC3)cc2)c1 | 5.2
93 | CN1CCN(CCn2nnc3ccccc32)CC1 | 0.36
94 | Nc1ccc2cc3ccccc3nc2c1CO | 1.77
95 | NCC(=O)NC(Cc1ccccc1)C(=O)NC(Cc1ccc(O)cc1)C(=O)O (stereo not drawn) (H-Gly-Phe-Tyr-OH; configuration not given here) | -1.96
96 | CCC(C)C(N)C(=O)NC(C(=O)O)C(C)CC (stereo not drawn) (H-Ile-Ile-OH; configuration not given here) | -1.82
97 | Oc1ccc(CNc2ncnc3nc[nH]c23)cc1 | 1.55
98 | Cc1c(C)c2cc3ccoc3cc2oc1=O | 2.77
99 | Brc1cc2cccc3ccc4cccc1c4c32 | 5.84
100 | C#CC(C)(C)NCC(O)CON=C(C1CC1)C1CC1 (configuration not stated) | 1.6
101 | CCCC(=NOCC)C1=C(O)CC2(CCC(CC)CC2)OC1=O (configuration not stated) | 4.47
102 | CC(C)Nc1nc(N)nc(O)n1 | 1.27
103 | Clc1ccc(N2CCN(CCn3nnc4ccccc43)CC2)cc1 | 3.4
104 | NC(=O)c1cccc2nc(N)nc(N)c12 | -0.33

Row | SMILES | logP
105 | O=c1cc(CCl)oc(Cl)c1O | 0.95
106 | CC(CO)NC(=O)Cn1ccnc1[N+](=O)[O-] (configuration not stated) | -1.02
107 | Cc1coc2cc3oc(=O)ccc3c(C)c12 | 2.79
108 | CC(C)Oc1cccc2nc(N)nc(N)c12 | 2.05
109 | Cc1c(O)c(=O)ccn1CCCOC(=O)c1ccccc1 | 1.25
110 | O=c1cc(CBr)occ1O | 0.61
111 | C=C1CCCC2(C)CCC(C(C)(C)O)CC12 (configuration not stated) | 4.64
112 | CCOP(=O)(OCC)C(C)(C)[N+]([O-])=Cc1ccccn1 | 0.68
113 | O=C(NC1CCCCCC1)NS(=O)(=O)c1cnccc1NC1CCCCCC1 | 4.96
114 | CCC(C)C(NC(=O)C(N)CC(C)C)C(=O)NC(C(=O)NCC(=O)NC(C)C(=O)O)C(C)CC (configuration not stated) (H-LIIGA-OH; configuration not given here) | -1.65
115 | COc1ccc(C2Cc3c(cccc3C(F)(F)F)N(CCN(C)C)C(=O)C2C)cc1 (configuration not stated) | 5.6
116 | CCCCCCCOC(C)=O | 3.46
117 | Cc1cc(=O)[nH]nc1/C=C/c1ccc(-n2cnc3c2CCCC3)cc1 | 3.1
118 | CCOc1cccc(COC(=O)C2C(C=C(C)C(=O)OC)C2(C)C)c1 (configuration not stated) | 4.78
119 | NC1=NCC(COc2ccc(-c3ccccc3)cc2)O1 (configuration not stated) | 2.8
120 | FC(F)(F)c1cccc(CNc2[nH]cnc3ncnc2-3)c1 | 3.08
121 | CCN(CC)C(=O)c1cn2c(C)c(C)nc2c2c1CCC(c1ccccc1)O2 (configuration not stated) | 4
122 | O=S(=O)(NC(=S)N1CCCCC1)c1cnccc1NC1CCCCCC1 | 4.15
123 | COc1ccc(Br)cc1CNC1CCCNC1c1ccccc1 (configuration not stated) | 4.2
124 | O=C1c2ccccc2-c2nnc(C(F)(F)F)cc21 | 2.21
125 | COc1ccc(C2Cc3c(ccc(Br)c3OC)N(CCN(C)C)C(=O)C2OC(C)=O)cc1 (configuration not stated) | 4.4
126 | CC(C)CC(NC(=O)C(N)CO)C(=O)O (stereo not drawn) (H-Ser-Leu-OH; configuration not given here) | -2.49
127 | CCCc1nc(N(C)C)nc(N2CCOCC2)n1 | 1.64

From the OPERA property sets (Mansouri et al. 2018)
